Assay results reported in patent US20030004207A1, “USE OF COMPOUNDS WHICH ACTIVATE A 5-HT RECEPTOR TO TREAT URINARY INCONTINENCE” (priority 1999, published 2003).
Read-outs that look alike come from different tables or passages of the source.

Legend:
[1] = target: T1, human 5-HT2C receptor (Homo sapiens, UniProt P28335); test: Radioligand binding, human 5-HT2C receptor
T1 construct: expressed in transfected cells
T1 sequence (P28335 33-458): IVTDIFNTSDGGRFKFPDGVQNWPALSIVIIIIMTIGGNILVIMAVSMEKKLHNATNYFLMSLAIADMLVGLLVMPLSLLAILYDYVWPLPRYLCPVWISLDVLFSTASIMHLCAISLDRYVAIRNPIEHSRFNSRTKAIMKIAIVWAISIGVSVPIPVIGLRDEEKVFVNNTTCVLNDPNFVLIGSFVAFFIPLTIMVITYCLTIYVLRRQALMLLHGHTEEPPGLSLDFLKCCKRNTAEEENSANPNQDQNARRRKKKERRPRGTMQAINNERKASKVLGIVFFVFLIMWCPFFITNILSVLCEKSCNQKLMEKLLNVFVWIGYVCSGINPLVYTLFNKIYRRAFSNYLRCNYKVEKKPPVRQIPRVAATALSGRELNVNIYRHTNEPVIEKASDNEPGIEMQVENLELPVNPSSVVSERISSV
Description: (§1) The binding of a test compound to a receptor of interest was generally evaluated by competitive binding assays using membrane preparations derived from cells which expressed the receptor. First, conditions were determined which allowed measurement of the specific binding of a compound known to bind to the receptor. Then, the binding of the known compound to the receptor in membrane preparations was evaluated in the presence of several different concentrations of the test compound.
(§2) Other 5-HT Receptors: The binding assays using 5-HT4 were preformed according to the procedures described in U.S. Pat. No. 5,766,879, the disclosure of which is hereby incorporated by reference in its entirety into this application. Other serotonin receptor binding assays were preformed according to published methods: 5-HT2B: Kursar et al., 1992; 5-HT2C: Saltzman et al., 1991; 5-HT3: Hoyer and Neijt, 1987; 5-HT5A: Plassat et al., 1992; 5-HT5B: Matthes et al., 1993; 5-HT6: Kohen et al., 1996.

[2] = target: T2, human 5-HT2B receptor (Homo sapiens, UniProt P41595); test: Radioligand binding, human 5-HT2B receptor
T2 construct: expressed in transfected cells
Description: as §1, §2

[3] = target: T3, human 5-HT7 receptor (Homo sapiens, UniProt P34969); test: Radioligand competition binding, human 5-HT7 receptor ([3H]-serotonin); conditions: read-out: Affinity at 5-HT7 (Ki ± SEM)
T3 construct: expressed in transfected cells
Description: as §1
(§3) The binding properties of compounds at different human receptors were determined in vitro using cultured cell lines that selectively express the receptor of interest. These cell lines were prepared by transfecting the cloned cDNA or cloned genomic DNA or constructs containing both genomic DNA and cDNA encoding the human receptors as follows:
(§4) Human 5HT1B, 5HT1D, 5HT1E, 5HT1F, and 5HT7 Receptors:
(§5) The cell lysates of LM(tk-) clonal cell line stably transfected with the genes encoding each of these 5-HT receptor-subtypes were prepared as described above. Cell membranes were suspended in 50 mM Tris-HCl buffer (pH 7.4 at 37° C.) containing 10 mM MgCl2, 0.2 mM EDTA, 10 μM pargyline, and 0.1% ascorbate. […] Nonspecific binding was determined in the presence of 10 μM serotonin. […]

[4] = target: T4, human 5-HT2A receptor (Homo sapiens, UniProt P28223); test: Radioligand competition binding, human 5-HT2A receptor ([3H] ketanserin)
T4 construct: expressed in transfected cells; host or cells: COS-7 (transient, pCEXV-3 vector)
Description: as §1, §3
Human 5HT2A Receptor: The coding sequence of the human 5HT2A receptor was obtained from a human brain cortex cDNA library, and cloned into the cloning site of pCEXV-3 eukaryotic expression vector. This construct was transfected into COS-7 cells by the DEAE-dextran method. Cells were harvested after 72 hours and lysed by sonication in 5 mM Tris-HCl, 5 mM EDTA, pH 7.5. […] The affinity of compounds at 5-HT2A receptors were determined in equilibrium competition binding assays using [^3H] ketanserin (1 nM). […]

[5] = target: T5, human 5-HT4 receptor (Homo sapiens, UniProt Q13639); test: Radioligand binding, human 5-HT4 receptor; conditions: read-out: Affinity at 5-HT4 (Ki ± SEM)
T5 construct: expressed in transfected cells
Description: as §1, §2

[6] = test system: distension-induced rhythmic contractions of the rat bladder; test: Distension-induced rhythmic contraction (DIRC) model of the micturition reflex; format: in vivo; conditions: for Effect on distension-induced rhythmic contractions of the rat bladder: urethane-anesthetized female rat, 0.1 mg/kg
Description: The effects of compounds on the micturition reflex were assessed in the “distension-induced rhythmic contraction” (DIRC) model in rats, as described in previous publications (e.g. Maggi et al., 1987; Morikawa et al., 1992).
Female Sprague Dawley rats weighing approximately 300 g were anesthetized with subcutaneous urethane (1.2 g/kg). The trachea was cannulated with PE240 tubing to provide a clear airway throughout the experiment. A midline abdominal incision was made and the left and right ureters were isolated. The ureters were ligated distally (to prevent escape of fluids from the bladder) and cannulated proximally with PE10 tubing. The incision was closed using 4-0 silk sutures, leaving the PE10 lines routed to the exterior for the elimination of urine. The bladder was cannulated via the transurethral route using PE50 tubing inserted 2.5 cm beyond the urethral opening. This cannula was secured to the tail using tape and connected to a pressure transducer. To prevent leakage from the bladder, the cannula was tied tightly to the exterior urethral opening using 4-0 silk.
To initiate the micturition reflex, the bladder was first emptied by applying pressure to the lower abdomen, and then filled with normal saline in 100 μl increments (maximum=2 ml) until spontaneous bladder contractions occurred (typically 20-40 mmHg at a rate of one contraction every 1 to 2 minutes. Once a regular rhythm was established, vehicle (saline) or 5-HT1F-selective compounds were administered i.p. to explore their effects on bladder activity. In some instances, a compound known to affect the micturition reflex (e.g. the GABAB receptor agonist APMPA [3-aminopropyl-2-methyl-phosphinic acid]) was given as a “positive control”.

[7] = target: T6, human 5-HT1D receptor (Homo sapiens, UniProt P28221); test: Radioligand competition binding, human 5-HT1D receptor ([3H]-serotonin); conditions: read-out: Affinity at 5-HT1D (Ki ± SEM)
T6 construct: expressed in transfected cells
Description: as §1, §3, §4, §5

[8] = target: T7, human 5-HT1F receptor (Homo sapiens, UniProt P30939); test: Radioligand competition binding, human 5-HT1F receptor ([3H]-serotonin); conditions: read-out: Affinity at 5-HT1F (Ki ± SEM)
T7 construct: expressed in transfected cells
T7 sequence (P30939 1-366): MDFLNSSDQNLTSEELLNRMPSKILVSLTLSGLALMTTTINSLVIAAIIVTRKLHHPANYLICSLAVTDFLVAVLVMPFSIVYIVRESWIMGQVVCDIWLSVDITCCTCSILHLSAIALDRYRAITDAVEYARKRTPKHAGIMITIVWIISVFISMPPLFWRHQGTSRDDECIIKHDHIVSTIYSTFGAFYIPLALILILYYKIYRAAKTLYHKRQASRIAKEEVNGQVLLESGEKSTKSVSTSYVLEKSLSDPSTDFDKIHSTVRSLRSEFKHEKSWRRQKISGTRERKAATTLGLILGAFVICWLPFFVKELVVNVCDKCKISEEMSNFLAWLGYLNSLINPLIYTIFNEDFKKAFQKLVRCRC
Description: as §1, §3, §4
(§6) The cell lysates of LM(tk-) clonal cell line stably transfected with the genes encoding each of these 5-HT receptor-subtypes were prepared as described above. Cell membranes were suspended in 50 mM Tris-HCl buffer (pH 7.4 at 37° C.) containing 10 mM MgCl2, 0.2 mM EDTA, 10 μM pargyline, and 0.1% ascorbate. The affinities of compounds were determined in equilibrium competition binding assays by incubation for 30 minutes at 37° C. in the presence of 5 nM [^3H]-serotonin. Nonspecific binding was determined in the presence of 10 μM serotonin. The bound radioligand was separated by filtration through GF/B filters using a cell harvester.

[9] = target: T8, human 5-HT6 receptor (Homo sapiens, UniProt P50406); test: Radioligand binding, human 5-HT6 receptor; conditions: read-out: Affinity at 5-HT6 (Ki ± SEM)
T8 construct: expressed in transfected cells
Description: as §1, §2

[10] = target: T9, human 5-HT1E receptor (Homo sapiens, UniProt P28566); test: Radioligand competition binding, human 5-HT1E receptor ([3H]-serotonin); conditions: read-out: Affinity at 5-HT1E (Ki ± SEM)
T9 construct: expressed in transfected cells
Description: as §1, §3, §4, §6

[11] = target: T10, human 5-HT1B receptor (Homo sapiens, UniProt P28222); test: Radioligand competition binding, human 5-HT1B receptor ([3H]-serotonin); conditions: read-out: Affinity at 5-HT1B (Ki ± SEM)
T10 construct: expressed in transfected cells
Description: as §1, §3, §4, §5

[12] = target: T11, human 5-HT1A receptor (Homo sapiens, UniProt P08908); test: Radioligand competition binding, human 5-HT1A receptor (3H-8-OH-DPAT); conditions: read-out: Affinity at 5-HT1A (Ki ± SEM)
T11 construct: expressed in transfected cells; host or cells: COS-7 (transient, pCEXV-3 vector)
T11 sequence (P08908 1-422): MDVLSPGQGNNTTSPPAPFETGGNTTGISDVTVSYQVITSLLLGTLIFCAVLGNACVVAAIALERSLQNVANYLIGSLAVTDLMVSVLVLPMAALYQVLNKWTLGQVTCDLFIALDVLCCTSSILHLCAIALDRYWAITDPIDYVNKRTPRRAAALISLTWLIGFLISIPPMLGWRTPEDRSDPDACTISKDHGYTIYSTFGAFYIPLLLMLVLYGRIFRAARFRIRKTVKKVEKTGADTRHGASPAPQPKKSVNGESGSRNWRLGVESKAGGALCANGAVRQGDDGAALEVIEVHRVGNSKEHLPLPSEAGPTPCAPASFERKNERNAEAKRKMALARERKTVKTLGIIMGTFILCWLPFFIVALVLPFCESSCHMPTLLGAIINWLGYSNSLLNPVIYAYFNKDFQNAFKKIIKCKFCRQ
Description: as §1
The binding properties of compounds at different human receptors were determined in vitro using cultured cell lines that selectively express the receptor of interest. […]
Human 5HT2A Receptor: The coding sequence of the human 5HT2A receptor was obtained from a human brain cortex cDNA library, and cloned into the cloning site of pCEXV-3 eukaryotic expression vector. […] The affinity of compounds at 5-HT2A receptors were determined in equilibrium competition binding assays using [^3H] ketanserin (1 nM). […]
5-HT1A Receptor: The cDNA corresponding to the 5-HT1A receptor open reading frames and variable non-coding 5′- and 3′-regions, was cloned into the eukaryotic expression vector pCEXV-3. […] Radioligand binding assays were performed as described above for the 5-HT2A receptor, except that ^3H-8-OH-DPAT was used as the radioligand and nonspecific binding was determined by the addition of 10 μM mianserin.

[13] = rat, prior administration of antagonist 1.0 mg/kg, i.p.

T9 sequence (P28566 whole entry): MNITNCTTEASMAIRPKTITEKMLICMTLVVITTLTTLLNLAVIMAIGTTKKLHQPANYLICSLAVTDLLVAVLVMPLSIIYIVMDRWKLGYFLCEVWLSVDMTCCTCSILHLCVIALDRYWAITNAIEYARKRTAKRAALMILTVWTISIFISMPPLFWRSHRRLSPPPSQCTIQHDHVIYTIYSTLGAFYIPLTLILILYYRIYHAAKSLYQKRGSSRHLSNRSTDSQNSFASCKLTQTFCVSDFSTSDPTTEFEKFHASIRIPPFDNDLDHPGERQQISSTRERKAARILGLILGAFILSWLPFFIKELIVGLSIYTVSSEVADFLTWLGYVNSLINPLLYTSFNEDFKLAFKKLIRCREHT
T10 sequence (P28222 whole entry): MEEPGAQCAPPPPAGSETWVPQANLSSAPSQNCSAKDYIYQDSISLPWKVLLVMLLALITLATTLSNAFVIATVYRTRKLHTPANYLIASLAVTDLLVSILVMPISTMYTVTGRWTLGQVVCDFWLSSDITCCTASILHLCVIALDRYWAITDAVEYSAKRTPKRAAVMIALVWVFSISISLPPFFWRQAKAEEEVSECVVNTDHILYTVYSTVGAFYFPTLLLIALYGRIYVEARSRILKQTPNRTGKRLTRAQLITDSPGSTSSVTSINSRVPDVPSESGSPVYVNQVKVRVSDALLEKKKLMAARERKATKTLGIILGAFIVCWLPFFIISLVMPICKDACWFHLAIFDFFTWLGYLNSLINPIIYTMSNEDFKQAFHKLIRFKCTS
T8 sequence (P50406 whole entry): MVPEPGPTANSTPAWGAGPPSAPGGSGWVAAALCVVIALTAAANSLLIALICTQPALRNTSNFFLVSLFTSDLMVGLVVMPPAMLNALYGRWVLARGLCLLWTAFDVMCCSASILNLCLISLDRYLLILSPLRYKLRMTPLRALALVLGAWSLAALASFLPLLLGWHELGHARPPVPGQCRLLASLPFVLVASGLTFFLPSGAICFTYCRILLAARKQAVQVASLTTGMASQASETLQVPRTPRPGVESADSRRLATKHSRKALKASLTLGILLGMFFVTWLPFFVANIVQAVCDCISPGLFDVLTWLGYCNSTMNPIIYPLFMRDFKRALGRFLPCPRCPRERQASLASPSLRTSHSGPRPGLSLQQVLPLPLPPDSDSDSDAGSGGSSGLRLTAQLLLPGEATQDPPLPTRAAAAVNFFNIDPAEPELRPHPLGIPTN
T2 sequence (P41595 whole entry): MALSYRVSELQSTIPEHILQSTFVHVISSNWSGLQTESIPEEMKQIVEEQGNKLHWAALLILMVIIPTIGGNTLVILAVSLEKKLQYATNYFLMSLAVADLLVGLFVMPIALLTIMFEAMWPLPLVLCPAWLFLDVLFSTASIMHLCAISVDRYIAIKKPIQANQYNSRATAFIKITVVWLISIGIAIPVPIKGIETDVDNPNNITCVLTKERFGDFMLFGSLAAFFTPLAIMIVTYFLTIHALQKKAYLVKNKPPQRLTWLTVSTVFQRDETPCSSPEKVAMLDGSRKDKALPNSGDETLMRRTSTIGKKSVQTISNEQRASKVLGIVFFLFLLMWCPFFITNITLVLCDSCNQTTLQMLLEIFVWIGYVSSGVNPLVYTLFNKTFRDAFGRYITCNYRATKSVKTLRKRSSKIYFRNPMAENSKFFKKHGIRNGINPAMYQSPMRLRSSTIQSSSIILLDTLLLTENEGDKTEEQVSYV
T4 sequence (P28223 whole entry): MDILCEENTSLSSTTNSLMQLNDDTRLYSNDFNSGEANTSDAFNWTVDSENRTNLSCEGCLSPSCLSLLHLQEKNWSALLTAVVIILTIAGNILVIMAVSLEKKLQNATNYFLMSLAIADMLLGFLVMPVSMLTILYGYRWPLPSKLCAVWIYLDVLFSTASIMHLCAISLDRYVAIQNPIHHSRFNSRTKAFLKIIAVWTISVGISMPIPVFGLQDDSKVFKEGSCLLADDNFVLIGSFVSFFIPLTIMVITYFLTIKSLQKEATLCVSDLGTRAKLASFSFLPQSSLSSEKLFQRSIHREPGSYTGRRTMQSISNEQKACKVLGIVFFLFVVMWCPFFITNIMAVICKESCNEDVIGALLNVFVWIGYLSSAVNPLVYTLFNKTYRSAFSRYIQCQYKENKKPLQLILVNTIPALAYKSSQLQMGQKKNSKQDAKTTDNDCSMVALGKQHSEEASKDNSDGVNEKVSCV
T5 sequence (Q13639 whole entry): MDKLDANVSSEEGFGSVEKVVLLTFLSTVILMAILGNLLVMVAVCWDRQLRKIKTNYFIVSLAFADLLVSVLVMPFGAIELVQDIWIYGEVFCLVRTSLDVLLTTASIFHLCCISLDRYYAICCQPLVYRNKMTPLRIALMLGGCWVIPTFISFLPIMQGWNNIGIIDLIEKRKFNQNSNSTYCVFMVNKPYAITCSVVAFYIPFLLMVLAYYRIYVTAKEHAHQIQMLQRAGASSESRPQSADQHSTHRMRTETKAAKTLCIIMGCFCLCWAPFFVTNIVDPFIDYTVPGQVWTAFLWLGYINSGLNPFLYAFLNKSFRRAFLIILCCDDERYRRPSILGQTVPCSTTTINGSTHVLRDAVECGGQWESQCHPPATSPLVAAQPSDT
T3 sequence (P34969 whole entry): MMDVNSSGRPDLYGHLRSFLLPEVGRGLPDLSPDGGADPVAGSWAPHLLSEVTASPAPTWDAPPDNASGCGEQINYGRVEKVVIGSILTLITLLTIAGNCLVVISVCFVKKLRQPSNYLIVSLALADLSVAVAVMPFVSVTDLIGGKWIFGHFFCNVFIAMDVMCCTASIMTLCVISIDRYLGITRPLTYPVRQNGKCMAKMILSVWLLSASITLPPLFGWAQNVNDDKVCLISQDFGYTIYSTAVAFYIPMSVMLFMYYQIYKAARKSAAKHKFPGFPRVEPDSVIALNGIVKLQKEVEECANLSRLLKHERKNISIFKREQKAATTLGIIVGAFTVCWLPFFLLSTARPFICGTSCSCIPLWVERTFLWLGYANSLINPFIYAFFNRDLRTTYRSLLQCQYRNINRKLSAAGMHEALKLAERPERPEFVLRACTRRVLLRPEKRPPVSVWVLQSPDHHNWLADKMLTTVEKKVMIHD
T6 sequence (P28221 whole entry): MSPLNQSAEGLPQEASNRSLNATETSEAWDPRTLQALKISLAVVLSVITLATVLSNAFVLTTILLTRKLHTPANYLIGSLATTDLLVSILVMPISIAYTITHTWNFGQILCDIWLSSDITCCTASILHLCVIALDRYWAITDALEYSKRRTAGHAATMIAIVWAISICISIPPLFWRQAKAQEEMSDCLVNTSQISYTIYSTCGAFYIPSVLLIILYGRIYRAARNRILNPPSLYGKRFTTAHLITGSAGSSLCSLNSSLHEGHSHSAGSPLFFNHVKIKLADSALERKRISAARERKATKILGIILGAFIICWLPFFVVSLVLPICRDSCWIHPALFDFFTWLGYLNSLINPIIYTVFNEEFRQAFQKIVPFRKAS

Row | SMILES | Ki ([1]; human 5-HT2C, read-out: Affinity at 5-HT2C (Ki ± SEM)) [nM] | Ki ([2]; human 5-HT2B, read-out: Affinity at 5-HT2B (Ki ± SEM)) [nM] | Ki [3] [nM] | Ki ([4]; human 5-HT2A, read-out: Affinity at 5-HT2A (Ki ± SEM)) [nM] | Ki [5] [nM] | Effect on distension-induced rhythmic contractions of the rat bladder ([6]; i.p.) | Ki [7] [nM] | Ki [8] [nM] | Ki [9] [nM] | Ki [10] [nM] | Ki [11] [nM] | Ki [12] [nM] | Ki [1] [nM] | Ki [2] [nM] | Ki [4] [nM] | Blockade of the inhibitory effect of Compound 2 on bladder contractions [6, 13] | Blockade of the inhibitory effect of the GABAB agonist 3-APMPA on bladder contractions [6, 13] | Effect on bladder contractions (positive control) ([6]; rat, after Compound 3, dose not given)
1 | CN(C)C1CCc2oc3ccc(NC(=O)c4ccncc4)cc3c2C1 (centres unmarked) [Compound 1, N-(N,N-Dimethyl-1,2,3,4-tetrahydro-2-aminodibenzofur-8-yl)-pyridine-4-carboxamide] | 4760 ± 169 | 4200 ± 219 | > 5000 | > 5000 | 1870 ± 57 | inhibited | 1780 ± 87 | 7.11 ± 0.76 | > 5000 | 2900 ± 288 | 751 ± 68 | 367 ± 42 |  |  |  |  |  | 
2 | CN(C)[C@@H]1CCc2c([nH]c3ccc(NC(=O)c4ccc(F)cc4)cc23)C1 [Compound 2, (R)-(+)-6-(4-fluorobenzoyl)amino-2-(dimethyl)amino-1,2,3,4-tetrahydro-9H-carbazole] |  |  |  |  |  | inhibited |  | 3.47 ± 0.08 |  | 461 ± 102 |  |  |  |  |  |  |  | 
3 | O[C@H](COc1ccc2ccccc2c1)CN1CCC(O)(c2cnc3ccccc3c2)CC1 [Compound 3, 1-((2S)-hydroxy-3-(naphth-2-yloxy)prop-1-yl)-4-hydroxy-4-(quinolin-3-yl)piperidine] |  |  | 4410 ± 514 |  | 405 ± 122 |  | 1530 ± 400 | 4.31 ± 0.53 | 4220 ± 399 | 3670 ± 505 | 1280 ± 144 | 591 ± 143 | 1370 ± 341 | 496 ± 36 | 377 ± 94 | complete blockade | failed to block | 
4 | CP(=O)(O)CCCN [Compound 3-APMPA, 3-aminopropyl-methyl-phosphinic acid, reference compound] |  |  |  |  |  |  |  |  |  |  |  |  |  |  |  |  |  | inhibitory effect
